Data set [1] concerns bicistronic HCV replicon (replicon RNA, GenBank Accession No. AJ242654). Kind of data set: HCV Replicon Assay. Type of data set: cell-based. The note with it: Hepatitis C virus, 72 h, read-out: Replicon IC50.

A value given as a limit tells only on which side of the number the result lay.

On to `N#Cc1c(-c2ccc(S(=O)(=O)NC(CF)CF)cn2)n(C2CCCC2)c2cc(C3CC3)ccc12` [compound 85, 6-(3-cyano-1-cyclopentyl-6-cyclopropyl-1H-indol-2-yl)-N-(1,3-difluoropropan-2-yl)pyridine-3-sulfonamide], for which the melting point (usually the temperature, or range, at which the solid turns liquid) is 194 to 200 °C. The concentration for half-maximal inhibition (IC50) (commonly the concentration needed to halve the response being measured) in data set [1] was less than 500 nM.

In turn, `Cc1ccc2c(C#N)c(-c3ncc(S(=O)(=O)N[C@@H](C)C4CC4)cn3)n(C3CCCC3)c2c1` [compound 204, 2-(3-cyano-1-cyclopentyl-6-methyl-1H-indol-2-yl)-N-[(1S)-1-cyclopropylethyl]pyrimidine-5-sulfonamide] came in with a melting point of 180 to 182 °C. In addition, the half-maximal inhibitory concentration (IC50) in data set [1] was less than 500 nM.

`Cc1ccc2c(C#N)c(-c3ccc(S(=O)(=O)N[C@H](C)C(F)(F)F)cn3)n(C(C)C)c2c1` [compound 210, 6-[3-cyano-6-methyl-1-(propan-2-yl)-1H-indol-2-yl]-N-[(2R)-1,1,1-trifluoropropan-2-yl]pyridine-3-sulfonamide] came in with a melting point of 211 to 216 °C. Besides, the IC50 in data set [1] is less than 500 nM.

As to `Cc1cc2c(cc1Br)c(C#N)c(-c1ccc(S(=O)(=O)N[C@H](C)C(F)(F)F)cn1)n2C1CCCC1` [compound 692, 6-(5-bromo-3-cyano-1-cyclopentyl-6-methyl-1H-indol-2-yl)-N-[(2R)-1,1,1-trifluoropropan-2-yl]pyridine-3-sulfonamide], the melting point is 226.5 to 227 °C. Moreover, the IC50 in data set [1] is less than 500 nM.

Turning to `Cc1cncc(-n2c(-c3ccc(S(=O)(=O)N[C@@H](C)C(F)(F)F)cn3)c(C#N)c3cc(F)c(C)cc32)n1` [compound 915, 6-[3-cyano-5-fluoro-6-methyl-1-(6-methylpyrazin-2-yl)-1H-indol-2-yl]-N-[(2S)-1,1,1-trifluoropropan-2-yl]pyridine-3-sulfonamide], the melting point fell in the range of 211 to 215 °C. Also, the IC50 in data set [1] is less than 500 nM.

For the compound `CC(C)n1c(-c2ccc(S(=O)(=O)N[C@@H](C)C(F)(F)F)cn2)c(C(N)=O)c2c(F)cc(OC(F)F)cc21` [compound 839, 6-(difluoromethoxy)-4-fluoro-1-(propan-2-yl)-2-(5-{[(2S)-1,1,1-trifluoropropan-2-yl]sulfamoyl}pyridin-2-yl)-1H-indole-3-carboxamide], the melting point is 197 to 198 °C. The IC50 in data set [1] is less than 500 nM.

`CCCn1c(-c2ncc(S(=O)(=O)N[C@@H](C)C3CC3)cn2)c(C#N)c2ccc(OC(F)F)cc21` [compound 208, 2-[3-cyano-6-(difluoromethoxy)-1-propyl-1H-indol-2-yl]-N-[(1S)-1-cyclopropylethyl]pyrimidine-5-sulfonamide] yielded a melting point of 152 to 154 °C. In addition, the IC50 in data set [1] was less than 500 nM.

Regarding `Cc1cc2c(C#N)c(-c3ccc(S(=O)(=O)N[C@@H](C)C(F)(F)F)cn3)n(-c3cnccn3)c2cc1F` [compound 919, 6-[3-cyano-6-fluoro-5-methyl-1-(pyrazin-2-yl)-1H-indol-2-yl]-N-[(2S)-1,1,1-trifluoropropan-2-yl]pyridine-3-sulfonamide], the melting point was in the range of 233 to 238 °C. In data set [1], the IC50 is less than 500 nM.

For `N#Cc1c(-c2ccc(S(=O)(=O)NC(CF)CF)cn2)n(C2CCC2)c2cc(CC(F)F)ccc12` [compound 267, 6-[3-cyano-1-cyclobutyl-6-(2,2-difluoroethyl)-1H-indol-2-yl]-N-(1,3-difluoropropan-2-yl)pyridine-3-sulfonamide], the melting point lay within 166 to 168 °C. For the same compound, the IC50 in data set [1] was less than 500 nM.

Turning to `N#Cc1c(-c2ccc(S(=O)(=O)NC(CF)CF)cn2)n(CC2CC2)c2cc(OC(F)(F)F)ccc12` [compound 68, 6-[3-cyano-1-(cyclopropylmethyl)-6-(trifluoromethoxy)-1H-indol-2-yl]-N-(1,3-difluoropropan-2-yl)pyridine-3-sulfonamide], the melting point lay in the range of 132 to 133 °C. Besides, in data set [1], the IC50 is less than 500 nM.

Consider `C[C@H](NS(=O)(=O)c1ccc(-c2c(C#N)c3ccc(OC(F)F)cc3n2C2CCCC2)nc1)C(F)(F)F` [compound 589, 6-[3-cyano-1-cyclopentyl-6-(difluoromethoxy)-1H-indol-2-yl]-N-[(2S)-1,1,1-trifluoropropan-2-yl]pyridine-3-sulfonamide], for which the melting point is 188 to 194 °C. Moreover, the IC50 in data set [1] was less than 500 nM.

As to `N#Cc1c(-c2ncc(S(=O)(=O)NC(CF)CF)cn2)n(C2CCCCC2)c2ccc(Cl)cc12` [compound 463, 2-(5-chloro-3-cyano-1-cyclohexyl-1H-indol-2-yl)-N-(1,3-difluoropropan-2-yl)pyrimidine-5-sulfonamide], the melting point is 251 to 253 °C. The half-maximal inhibitory concentration (IC50) in data set [1] was less than 500 nM.

Turning to `Cc1ccc2c(c1)c(C#N)c(-c1ccc(S(=O)(=O)N[C@@H](C)C3CC3)cn1)n2CC1CC1` [compound 525, 6-[3-cyano-1-(cyclopropylmethyl)-5-methyl-1H-indol-2-yl]-N-[(1S)-1-cyclopropylethyl]pyridine-3-sulfonamide], the melting point was in the range of 181 to 185 °C. Also, the IC50 in data set [1] is 500 to 2000 nM.

The compound `COc1ccc2c(c1)c(C#N)c(-c1ccc(S(=O)(=O)NC(CF)CF)cn1)n2C1CCC1` [compound 550, 6-(3-cyano-1-cyclobutyl-5-methoxy-1H-indol-2-yl)-N-(1,3-difluoropropan-2-yl)pyridine-3-sulfonamide] registered a melting point of 149 to 150 °C. Besides, the IC50 in data set [1] is less than 500 nM.

`N#Cc1c(-c2ncc(S(=O)(=O)NC(CF)CF)cn2)n(C2CCC2)c2cc(OC(F)(F)F)ccc12` [compound 177, 2-[3-cyano-1-cyclobutyl-6-(trifluoromethoxy)-1H-indol-2-yl]-N-(1,3-difluoropropan-2-yl)pyrimidine-5-sulfonamide] registered a melting point of 202 to 204 °C. In data set [1], the IC50 is less than 500 nM.

`C[C@H](NS(=O)(=O)c1ccc(-c2c(C#N)c3cc(Cl)ccc3n2C2CCCC2)nc1)C(F)(F)F` [compound 365, 6-(5-chloro-3-cyano-1-cyclopentyl-1H-indol-2-yl)-N-[(2S)-1,1,1-trifluoropropan-2-yl]pyridine-3-sulfonamide]: the melting point was 207 to 214 °C. In data set [1], the half-maximal inhibitory concentration (IC50) is less than 500 nM.

On to `CC(C)n1c(-c2ccc(S(=O)(=O)NC(CF)CF)cn2)c(C#N)c2cc(Cl)ccc21` [compound 65, 6-[5-chloro-3-cyano-1-(propan-2-yl)-1H-indol-2-yl]-N-(1,3-difluoropropan-2-yl)pyridine-3-sulfonamide], for which the melting point lay in the range of 212 to 215 °C. For the same compound, the IC50 in data set [1] is less than 500 nM.

`CCc1ccc2c(C#N)c(-c3ccc(S(=O)(=O)N[C@@H](C)C(F)(F)F)cn3)n(C3CCC3)c2c1` [compound 338, 6-(3-cyano-1-cyclobutyl-6-ethyl-1H-indol-2-yl)-N-[(2S)-1,1,1-trifluoropropan-2-yl]pyridine-3-sulfonamide] registered a melting point of 198 to 199 °C. Besides, the IC50 in data set [1] was less than 500 nM.

Take `N#Cc1c(-c2ccc(S(=O)(=O)NC(CF)CF)cn2)n(CC2CC2)c2ccc(F)cc12` [compound 58, 6-[3-cyano-1-(cyclopropylmethyl)-5-fluoro-1H-indol-2-yl]-N-(1,3-difluoropropan-2-yl)pyridine-3-sulfonamide]: the melting point was in the range of 162 to 164 °C. Further, in data set [1], the IC50 is less than 500 nM.

The compound `CCc1cc2c(cc1F)c(C#N)c(-c1cc(C)c(S(=O)(=O)N[C@@H](C)C(F)(F)F)cn1)n2-c1ncccn1` [compound 851, 6-[3-cyano-6-ethyl-5-fluoro-1-(pyrimidin-2-yl)-1H-indol-2-yl]-4-methyl-N-[(2S)-1,1,1-trifluoropropan-2-yl]pyridine-3-sulfonamide] showed a melting point of 231 to 236 °C. The IC50 in data set [1] was less than 500 nM.

`Cc1ccc2c(C#N)c(-c3ccc(S(=O)(=O)NC(CF)CF)cn3)n(C3CCCCC3)c2c1` [compound 513, 6-(3-cyano-1-cyclohexyl-6-methyl-1H-indol-2-yl)-N-(1,3-difluoropropan-2-yl)pyridine-3-sulfonamide] displayed a melting point of 195 to 203 °C. The IC50 in data set [1] was less than 500 nM.

As for `Cc1cc2c(cc1O)c(C(N)=O)c(-c1ccc(S(=O)(=O)N[C@@H](C)C(F)(F)F)cn1)n2C1CCCC1` [compound 841, 1-cyclopentyl-5-hydroxy-6-methyl-2-(5-{[(2S)-1,1,1-trifluoropropan-2-yl]sulfamoyl}pyridin-2-yl)-1H-indole-3-carboxamide], the melting point was 272 to 274 °C. In data set [1], the IC50 was less than 500 nM.

`COc1ccc2c(C#N)c(-c3ncc(S(=O)(=O)N[C@@H](C)C4CC4)cn3)n(C3CCCC3)c2c1` [compound 206, 2-(3-cyano-1-cyclopentyl-6-methoxy-1H-indol-2-yl)-N-[(1S)-1-cyclopropylethyl]pyrimidine-5-sulfonamide] displayed a melting point of 192 to 194 °C. In addition, in data set [1], the IC50 is 500 to 2000 nM.

Take `CC(C)NS(=O)(=O)c1cnc(-c2c(C#N)c3ccc(F)cc3n2C(C)C)nc1` [compound 140, 2-[3-cyano-6-fluoro-1-(propan-2-yl)-1H-indol-2-yl]-N-(propan-2-yl)pyrimidine-5-sulfonamide]: the melting point was in the range of 158 to 160 °C. For the same compound, the 50% inhibitory concentration (IC50) in data set [1] lay in the range of 500 to 2000 nM.

For the compound `N#Cc1c(-c2ccc(S(=O)(=O)NC(CF)CF)cn2)n(C2CCCCC2)c2cc(OC(F)F)ccc12` [compound 100, 6-[3-cyano-1-cyclohexyl-6-(difluoromethoxy)-1H-indol-2-yl]-N-(1,3-difluoropropan-2-yl)pyridine-3-sulfonamide], the melting point is 175 to 178 °C. In data set [1], the IC50 was less than 500 nM.

The compound `Cc1cc2c(cc1F)c(C#N)c(-c1ccc(S(=O)(=O)N[C@@H](C)C(F)(F)F)cn1)n2-c1ccc(Cl)s1` [compound 1032, 6-[1-(5-chlorothiophen-2-yl)-3-cyano-5-fluoro-6-methyl-1H-indol-2-yl]-N-[(2S)-1,1,1-trifluoropropan-2-yl]pyridine-3-sulfonamide] came in with a melting point of 244.8 to 247.4 °C. In addition, the IC50 in data set [1] is less than 500 nM.

Values taken from US8735414B2 (priority 2009, dated 2014).
